In PMC7833600 (The Journal of Biological Chemistry, 2021):
Non-standard residues stand in square brackets, D forms with d. Residues, ends and D or L forms follow the SMILES beside them. No end group written: not given here. *: point of attachment. Dnp = O=[N+]([O-])c1ccc(*)c([N+](=O)[O-])c1; Sta = CC(C)C[C@H](N)[C@@H](O)CC(=O)O; Mca = COc1ccc2c(CC(=O)*)cc(=O)oc2c1; Isovaleryl = CC(C)CC(=O)*

Tests used:
human ACE2 [1] = target: T1, human ACE2 (Homo sapiens, UniProt Q9BYF1); assay: biochemical; conditions: IC50 for Competitive substrates, 1 h, 26 °C
T1 sequence (Q9BYF1 18-740 limits assumed): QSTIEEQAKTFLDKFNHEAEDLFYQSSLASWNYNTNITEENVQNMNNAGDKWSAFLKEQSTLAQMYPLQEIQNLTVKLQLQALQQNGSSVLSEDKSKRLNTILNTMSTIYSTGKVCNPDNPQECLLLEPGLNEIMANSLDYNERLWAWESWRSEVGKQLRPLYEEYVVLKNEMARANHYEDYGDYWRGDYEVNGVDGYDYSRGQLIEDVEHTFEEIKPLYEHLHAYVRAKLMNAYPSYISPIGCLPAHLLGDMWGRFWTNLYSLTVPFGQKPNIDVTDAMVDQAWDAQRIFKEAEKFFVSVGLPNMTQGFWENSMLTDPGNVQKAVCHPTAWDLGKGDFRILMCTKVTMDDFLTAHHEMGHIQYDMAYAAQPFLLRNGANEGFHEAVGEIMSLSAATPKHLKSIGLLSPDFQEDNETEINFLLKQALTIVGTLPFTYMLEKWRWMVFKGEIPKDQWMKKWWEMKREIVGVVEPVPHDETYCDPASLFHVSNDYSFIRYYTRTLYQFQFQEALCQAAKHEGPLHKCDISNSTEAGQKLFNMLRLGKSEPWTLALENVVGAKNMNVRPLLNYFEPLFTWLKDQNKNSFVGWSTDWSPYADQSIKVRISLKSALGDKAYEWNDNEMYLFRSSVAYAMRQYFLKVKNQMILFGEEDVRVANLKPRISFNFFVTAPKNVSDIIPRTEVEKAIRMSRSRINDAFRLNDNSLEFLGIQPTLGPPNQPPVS

human ACE2 [2] = target: T1, human ACE2; format: biochemical
ACE2 = conditions: cited from earlier work
human ACE2 [3] = target: T1, human ACE2; format: biochemical; remark: listed apart in the source

## RPPGFSPFR [BK, bradykinin]
Human ACE2 [1]
  IC50: 0.68 ± 0.087 mM

## Mca-YVADAPK(Dnp)-OH
Human ACE2 [2]
  amount of substrate cleaved by ACE2: ~0.5 µM

## Mca-RPPGFSAFK(Dnp)-OH
Human ACE2 [2]
  amount of substrate cleaved by ACE2: ~0.05 µM

## N=C(N)NCCC[C@H](N)C(=O)N1CCC[C@H]1C(=O)N1CCC[C@H]1C(=O)NCC(=O)N[C@@H](Cc1ccccc1)C(=O)N[C@@H](CO)C(=O)N1CCC[C@H]1C(=O)N[C@@H](Cc1ccccc1)C(=O)O [desBK, des-Arg^9-bradykinin]
Human ACE2 [1]
  IC50: 1.43 ± 0.655 mM

## YGGFLRRIRPKL↓K [dynorphin A 1-13]
ACE2
  k cat/Km of ACE2 cleavage: > 1e+06 M⁻¹ s⁻¹

## QRPRLSHKGPMP↓F [Apelin-13]
ACE2
  k cat/Km of ACE2 cleavage: > 1e+06 M⁻¹ s⁻¹

## NCCc1ccc(S(=O)(=O)F)cc1 [AEBSF]
Human ACE2 [3]
  effect on ACE2 activity: no effects

## CC(=O)N[C@@H](CC(C)C)C(=O)N[C@@H](CC(C)C)C(=O)N[C@H](C=O)CCCNC(=N)N [leupeptin]
Human ACE2 [3]
  effect on ACE2 activity: no effects

## CC(C)CC(=O)N[C@H](C(=O)N[C@H](C(=O)N[C@@H](CC(C)C)[C@@H](O)CC(=O)N[C@@H](C)C(=O)N[C@@H](CC(C)C)[C@@H](O)CC(=O)O)C(C)C)C(C)C [pepstatin A] (Isovaleryl-VV[Sta]A[Sta]-OH)
Human ACE2 [3]
  effect on ACE2 activity: no effects

## CC(C)C[C@H](N[C@@H](Cc1cncn1Cc1cc(Cl)cc(Cl)c1)C(=O)O)C(=O)O [MLN-4760]
Human ACE2 [3]
  effect on ACE2 activity: completely blocked
  effect on the spike / RBD mediated enhancement of ACE2 cleavage: abolished
